{"source": "paper PMC6272306", "about": "“LC-MS/MS Determination and Pharmacokinetic Study of Pedunculoside in Rat Plasma after Oral Administration of Pedunculoside and Ilex rotunda Extract” (Molecules, 2015)", "key": {"[1]": {"tested_on": "hyperlipidemic albino rats", "design": "method as in doi:10.1076/phbi.37.1.37.6314", "conditions": "cited from earlier work"}, "[2]": {"assay": "Pharmacokinetic study of PDC in rat plasma after oral administration of pure PDC or IRE (LC-MS/MS)", "format": "in vivo, Sprague-Dawley rats", "conditions": "male, Sprague-Dawley, PDC in rat plasma, n = 6, mean ± SD; for CL/F: read-out: CLz/F (converted); for MRT last: read-out: MRT0–t; for MRT inf: read-out: MRT0–∞; for Vd/F: read-out: Vz/F; for half-life: read-out: t1/2z (converted)", "experimental": "The analytical procedures described in Section 3.3 were performed to quantify PDC in rat plasma samples obtained from 24 male Sprague-Dawley rats. Out of these rats, 12 were orally administered with pure PDC, whereas 12 were orally administered with IRE. Establishing an intravenous dose group might provide the bioavailability of PDC, however, the present experiment aimed to compare the pharmacokinetic differences of PDC between monomer and IRE groups after oral administration. A fully validated LC-MS/MS method was developed and successfully applied to the pharmacokinetic behavior of PDC in rats after oral administration of the pure PDC and IRE, which were given at the same equivalent doses (42 and 84 mg/kg PDC). The mean plasma concentration-time profiles of PDC and the herbal extract after oral administration at different doses are illustrated in Figure 3, and the estimated pharmacokinetic parameters are presented in Table 4. A simple and rapid protein precipitation method was used for the preparation of all the plasma samples (calibration standards and QC samples, and real plasma samples post-dose). Plasma sample aliquots (75 µL) were added with IS solution (50 µL, 200 ng/mL) and methanol (500 µL) in tubes, then vortex-mixed for 1 min, and centrifuged at 14,000× g for 10 min. […] The dried residue was reconstituted in 100 µL of methanol-H2O (70:30, v/v) and centrifuged at 14,000× g for 5 min before analysis, and an aliquot of 5 µL was injected into LC-MS/MS systems for analysis. All experimental procedures and protocols were approved by the Animal Care and Use Committee of Jilin University (Changchun, China). All the rats were fasted for 12 h before the experiment, and were randomly divided into four groups (n = 6 per group). Group I and II were intragastrically administrated an oral dose of 42 and 84 mg/kg pure PDC, respectively. Group III and IV were intragastrically administrated an oral dose of 0.16 and 0.32 g/kg IRE, which was equivalent to 42 and 84 mg/kg PDC, respectively. Both pure PDC and IRE powder was suspended in 0.5% carboxymethyl cellulose sodium (CMC-Na) solution just before use. Blood samples (0.3 mL) were collected from the orbital sinus venous plexus at 0, 0.083, 0.25, 0.5, 0.75, 1, 1.5, 2, 3, 4, 6, 8, and 12 h after gavage dosing. After centrifuging at 5000× g for 10 min, the plasma samples were obtained and frozen at −20 °C until analysis. The pharmacokinetic parameters including Cmax, Tmax, t1/2z, AUC0–t, AUC0–∞, CLz/F, and Vz/F were calculated by non-compartmental method using the DAS 2.0 pharmacokinetics program (Chinese Pharmacology Society, Beijing, China). An independent-sample t-test was performed twice to evaluate the differences of pharmacokinetic parameters between the two groups."}, "[3]": {"assay": "Stability of PDC in rat plasma QC samples under various storage conditions", "format": "in vitro ADME", "conditions": "n = 6", "experimental": "The results were compared with those obtained with freshly prepared QC samples. It could be seen from Table 3 that the results are well within the acceptance limits. Stability of PDC in plasma was tested by the analysis of six replicates of QC samples […] exposed to various storage conditions. To assess the short-term stability study, QC samples were kept at 25 °C for at least 4 h and samples were processed at different time points and were determined and compared with the freshly prepared QC samples. For the long-term stability, QC samples were determined after storage of the plasma samples at −20 °C for 2 months. For freeze-thaw stability, QC samples were subjected to three freeze/thaw cycles (room temperature to −20 °C). For post-preparation stability, the processed QC samples stored in the autosampler trials for 12 h at 4 °C, were analyzed and compared with the freshly prepared QC samples."}, "[4]": {"conditions": "42 mg/kg PDC (IRE dosage equivalent to PDC dosage)"}, "[5]": {"conditions": "84 mg/kg PDC (IRE dosage equivalent to PDC dosage)"}, "[6]": {"conditions": "processed rat plasma samples in autosampler, Post-preparation stability (4 °C for 12 h), nominal 0.60 ng/mL (LLOQ)"}, "[7]": {"conditions": "processed rat plasma samples in autosampler, Post-preparation stability (4 °C for 12 h), nominal 1.50 ng/mL (QC-low)"}, "[8]": {"conditions": "processed rat plasma samples in autosampler, Post-preparation stability (4 °C for 12 h), nominal 15.0 ng/mL (QC-medium)"}, "[9]": {"conditions": "processed rat plasma samples in autosampler, Post-preparation stability (4 °C for 12 h), nominal 180 ng/mL (QC-high)"}, "[10]": {"conditions": "rat plasma, Long-term stability (−20 °C for 2 months), nominal 0.60 ng/mL (LLOQ)"}, "[11]": {"conditions": "rat plasma, Long-term stability (−20 °C for 2 months), nominal 1.50 ng/mL (QC-low)"}, "[12]": {"conditions": "rat plasma, Long-term stability (−20 °C for 2 months), nominal 15.0 ng/mL (QC-medium)"}, "[13]": {"conditions": "rat plasma, Long-term stability (−20 °C for 2 months), nominal 180 ng/mL (QC-high)"}, "[14]": {"conditions": "rat plasma, Short-term (25 °C for 4 h), nominal 0.60 ng/mL (LLOQ)"}, "[15]": {"conditions": "rat plasma, Short-term (25 °C for 4 h), nominal 1.50 ng/mL (QC-low)"}, "[16]": {"conditions": "rat plasma, Short-term (25 °C for 4 h), nominal 15.0 ng/mL (QC-medium)"}, "[17]": {"conditions": "rat plasma, Short-term (25 °C for 4 h), nominal 180 ng/mL (QC-high)"}, "[18]": {"conditions": "rat plasma, Three freeze/thaw cycles (room temperature to −20 °C), nominal 0.60 ng/mL (LLOQ)"}, "[19]": {"conditions": "rat plasma, Three freeze/thaw cycles (room temperature to −20 °C), nominal 1.50 ng/mL (QC-low)"}, "[20]": {"conditions": "rat plasma, Three freeze/thaw cycles (room temperature to −20 °C), nominal 15.0 ng/mL (QC-medium)"}, "[21]": {"conditions": "rat plasma, Three freeze/thaw cycles (room temperature to −20 °C), nominal 180 ng/mL (QC-high)"}}, "note": "Like-named read-outs stand apart in the source and are kept apart here."}
{"smiles": "C[C@@H]1CC[C@]2(C(=O)O[C@@H]3O[C@H](CO)[C@@H](O)[C@H](O)[C@H]3O)CC[C@]3(C)C(=CC[C@@H]4[C@@]5(C)CC[C@H](O)[C@@](C)(CO)[C@@H]5CC[C@]43C)[C@@H]2[C@]1(C)O", "note": "[PDC, Pedunculoside]", "values": [{"measurement": "hypolipidemic activity", "setting": "[1]", "value": "significant hypolipidemic activity"}, {"measurement": "AUC(0-inf)", "setting": "[2]; [4]", "value": "379 ± 84.8", "unit": "ng·h/mL"}, {"measurement": "AUC(0-t)", "setting": "[2]; [4]", "value": "374 ± 82.9", "unit": "ng·h/mL"}, {"measurement": "Cmax", "setting": "[2]; [4]", "value": "95.2 ± 7.93", "unit": "ng/mL"}, {"measurement": "Tmax", "setting": "[2]; [4]", "value": "1.6 ± 0.42", "unit": "h"}, {"measurement": "CL/F", "setting": "[2]; [4]", "value": 1930, "unit": "mL/min/kg"}, {"measurement": "MRT last", "setting": "[2]; [4]", "value": "3.17 ± 0.45", "unit": "h"}, {"measurement": "MRT inf", "setting": "[2]; [4]", "value": "3.33 ± 0.48", "unit": "h"}, {"measurement": "Vd/F", "setting": "[2]; [4]", "value": "287 ± 63.5", "unit": "L/kg"}, {"measurement": "half-life", "setting": "[2]; [4]", "value": "1.73 ± 0.11", "unit": "h"}, {"measurement": "AUC(0-inf)", "setting": "[2]; [5]", "value": "665 ± 151", "unit": "ng·h/mL"}, {"measurement": "AUC(0-t)", "setting": "[2]; [5]", "value": "661 ± 149", "unit": "ng·h/mL"}, {"measurement": "Cmax", "setting": "[2]; [5]", "value": "174 ± 12.9", "unit": "ng/mL"}, {"measurement": "Tmax", "setting": "[2]; [5]", "value": "1.8 ± 0.91", "unit": "h"}, {"measurement": "CL/F", "setting": "[2]; [5]", "value": 2110, "unit": "mL/min/kg"}, {"measurement": "MRT last", "setting": "[2]; [5]", "value": "3.08 ± 0.42", "unit": "h"}, {"measurement": "MRT inf", "setting": "[2]; [5]", "value": "3.15 ± 0.44", "unit": "h"}, {"measurement": "Vd/F", "setting": "[2]; [5]", "value": "273 ± 45.6", "unit": "L/kg"}, {"measurement": "half-life", "setting": "[2]; [5]", "value": "1.5 ± 0.08", "unit": "h"}, {"measurement": "Determined Conc. (Mean ± SD)", "setting": "[3]; [6]", "value": "0.596 ± 0.011", "unit": "ng/mL"}, {"measurement": "RE", "setting": "[3]; [6]", "value": "−0.60", "unit": "%"}, {"measurement": "Determined Conc. (Mean ± SD)", "setting": "[3]; [7]", "value": "1.65 ± 0.10", "unit": "ng/mL"}, {"measurement": "RE", "setting": "[3]; [7]", "value": 10.04, "unit": "%"}, {"measurement": "Determined Conc. (Mean ± SD)", "setting": "[3]; [8]", "value": "13.81 ± 0.63", "unit": "ng/mL"}, {"measurement": "RE", "setting": "[3]; [8]", "value": "−7.91", "unit": "%"}, {"measurement": "Determined Conc. (Mean ± SD)", "setting": "[3]; [9]", "value": "183.17 ± 2.59", "unit": "ng/mL"}, {"measurement": "RE", "setting": "[3]; [9]", "value": 1.76, "unit": "%"}, {"measurement": "Determined Conc. (Mean ± SD)", "setting": "[3]; [10]", "value": "0.573 ± 0.008", "unit": "ng/mL"}, {"measurement": "RE", "setting": "[3]; [10]", "value": "−4.56", "unit": "%"}, {"measurement": "Determined Conc. (Mean ± SD)", "setting": "[3]; [11]", "value": "1.52 ± 0.16", "unit": "ng/mL"}, {"measurement": "RE", "setting": "[3]; [11]", "value": 1.11, "unit": "%"}, {"measurement": "Determined Conc. (Mean ± SD)", "setting": "[3]; [12]", "value": "15.96 ± 0.68", "unit": "ng/mL"}, {"measurement": "RE", "setting": "[3]; [12]", "value": 6.39, "unit": "%"}, {"measurement": "Determined Conc. (Mean ± SD)", "setting": "[3]; [13]", "value": "160.70 ± 7.58", "unit": "ng/mL"}, {"measurement": "RE", "setting": "[3]; [13]", "value": "−10.72", "unit": "%"}, {"measurement": "Determined Conc. (Mean ± SD)", "setting": "[3]; [14]", "value": "0.673 ± 0.014", "unit": "ng/mL"}, {"measurement": "RE", "setting": "[3]; [14]", "value": 12.24, "unit": "%"}, {"measurement": "Determined Conc. (Mean ± SD)", "setting": "[3]; [15]", "value": "1.44 ± 0.09", "unit": "ng/mL"}, {"measurement": "RE", "setting": "[3]; [15]", "value": "−3.77", "unit": "%"}, {"measurement": "Determined Conc. (Mean ± SD)", "setting": "[3]; [16]", "value": "14.88 ± 1.03", "unit": "ng/mL"}, {"measurement": "RE", "setting": "[3]; [16]", "value": "−0.77", "unit": "%"}, {"measurement": "Determined Conc. (Mean ± SD)", "setting": "[3]; [17]", "value": "192.71 ± 11.42", "unit": "ng/mL"}, {"measurement": "RE", "setting": "[3]; [17]", "value": 7.06, "unit": "%"}, {"measurement": "Determined Conc. (Mean ± SD)", "setting": "[3]; [18]", "value": "0.570 ± 0.016", "unit": "ng/mL"}, {"measurement": "RE", "setting": "[3]; [18]", "value": "−5.00", "unit": "%"}, {"measurement": "Determined Conc. (Mean ± SD)", "setting": "[3]; [19]", "value": "1.38 ± 0.162", "unit": "ng/mL"}, {"measurement": "RE", "setting": "[3]; [19]", "value": "−7.82", "unit": "%"}, {"measurement": "Determined Conc. (Mean ± SD)", "setting": "[3]; [20]", "value": "16.32 ± 1.37", "unit": "ng/mL"}, {"measurement": "RE", "setting": "[3]; [20]", "value": 8.81, "unit": "%"}, {"measurement": "Determined Conc. (Mean ± SD)", "setting": "[3]; [21]", "value": "162.85 ± 15.57", "unit": "ng/mL"}, {"measurement": "RE", "setting": "[3]; [21]", "value": "−9.53", "unit": "%"}]}
